Test results reported in ChEMBL document CHEMBL5120829, “Discovery and structural optimization of potent epidermal growth factor receptor (EGFR) inhibitors against L858R/T790M/C797S resistance mutation for lung cancer treatment” (Eur J Med Chem, 2022).
Activity calls are given as the source filed them. The calls are words filed in the database; no cut-off is given here.

Assays:
[1] = target: Signal transducer and activator of transcription 3 (Homo sapiens) (UniProt P40763); test: Inhibition of STAT3 phosphorylation in human PC-9 cells expressing EGFR L858R/T790M/C797S mutant at 0.01 to 1 uM by Western blot analysis; format: cell-based; conditions: dose 0.01-1 µM
[2] = system: Epidermal growth factor receptor (Homo sapiens), P00533 [L858R,T790M,C797S]; test: Inhibition of EGFR phosphorylation in human PC-9 cells expressing EGFR L858R/T790M/C797S mutant at 0.01 to 1 uM by Western blot analysis; format: cell-based; conditions: dose 0.01-1 µM
[3] = system: Epidermal growth factor receptor (Homo sapiens), P00533 [L858R,T790M,C797S]; test: Inhibition of EGFR L858R/T790M/C797S mutant (unknown origin) at 0.5 uM relative to control
[4] = system: Epidermal growth factor receptor (Homo sapiens), P00533 [L858R,T790M,C797S]; test: Inhibition of EGFR L858R/T790M/C797S mutant (unknown origin) at 1 uM relative to control
[5] = target: Epidermal growth factor receptor (Homo sapiens, UniProt P00533, C797S/L858R/T790M); test: Inhibition of EGFR L858R/T790M/C797S mutant (unknown origin)
PC-9 [6] = test: Antiproliferative activity against human PC-9 cells expressing EGFR L858R/T790M/C797S mutant assessed as inhibition of cell growth incubated for 72 hrs by CCK-8 assay; format: functional, cell-based; conditions: PC-9, 72 h
A-431 = test: Antiproliferative activity against human A-431 cells assessed as inhibition of cell growth incubated for 72 hrs by CCK-8 assay; format: functional, cell-based; conditions: A-431, 72 h
A549 = test: Antiproliferative activity against human A549 cells assessed as inhibition of cell growth incubated for 72 hrs by CCK-8 assay; format: functional, cell-based; conditions: A549, 72 h
PC-9 [7] = test: Cell cycle arrest in human PC-9 cells expressing EGFR L858R/T790M/C797S mutant assessed as increase in accumulation of cells at G0/G1 phase at 0.01 to 1 uM incubated for 24 hrs by RNase/PI staining based flow cytometry analysis; format: functional; conditions: dose 0.01-1 µM
PC-9 [8] = test: Induction of apoptosis in human PC-9 cells expressing EGFR L858R/T790M/C797S mutant assessed as viable cells at 0.01 uM incubated for 24 hrs by annexin-V/propidium iodide staining-based flow cytometry analysis (reference value: 99.1 %); format: functional; conditions: read-out: Activity
PC-9 [9] = test: Induction of apoptosis in human PC-9 cells expressing EGFR L858R/T790M/C797S mutant assessed as early apoptotic cells at 0.01 uM incubated for 24 hrs by annexin-V/propidium iodide staining-based flow cytometry analysis (reference value: 0.3 %); format: functional
PC-9 [10] = test: Induction of apoptosis in human PC-9 cells expressing EGFR L858R/T790M/C797S mutant assessed as late apoptotic cells at 0.01 uM incubated for 24 hrs by annexin-V/propidium iodide staining-based flow cytometry analysis (reference value: 0.14 %); format: functional
PC-9 [11] = test: Induction of apoptosis in human PC-9 cells expressing EGFR L858R/T790M/C797S mutant assessed as dead cells at 0.01 uM incubated for 24 hrs by annexin-V/propidium iodide staining-based flow cytometry analysis (reference value: 0.43 %); format: functional
PC-9 [12] = test: Induction of apoptosis in human PC-9 cells expressing EGFR L858R/T790M/C797S mutant assessed as viable cells at 0.05 uM incubated for 24 hrs by annexin-V/propidium iodide staining-based flow cytometry analysis (reference value: 99.1 %); format: functional; conditions: read-out: Activity
PC-9 [13] = test: Induction of apoptosis in human PC-9 cells expressing EGFR L858R/T790M/C797S mutant assessed as early apoptotic cells at 0.05 uM incubated for 24 hrs by annexin-V/propidium iodide staining-based flow cytometry analysis (reference value: 0.3 %); format: functional
PC-9 [14] = test: Induction of apoptosis in human PC-9 cells expressing EGFR L858R/T790M/C797S mutant assessed as late apoptotic cells at 0.05 uM incubated for 24 hrs by annexin-V/propidium iodide staining-based flow cytometry analysis (reference value: 0.14 %); format: functional
PC-9 [15] = test: Induction of apoptosis in human PC-9 cells expressing EGFR L858R/T790M/C797S mutant assessed as dead cells at 0.05 uM incubated for 24 hrs by annexin-V/propidium iodide staining-based flow cytometry analysis (reference value: 0.43 %); format: functional
PC-9 [16] = test: Induction of apoptosis in human PC-9 cells expressing EGFR L858R/T790M/C797S mutant assessed as viable cells at 0.25 uM incubated for 24 hrs by annexin-V/propidium iodide staining-based flow cytometry analysis (reference value: 99.1 %); format: functional; conditions: Homo sapiens, PC-9, read-out: Activity
PC-9 [17] = test: Induction of apoptosis in human PC-9 cells expressing EGFR L858R/T790M/C797S mutant assessed as early apoptotic cells at 0.25 uM incubated for 24 hrs by annexin-V/propidium iodide staining-based flow cytometry analysis (reference value: 0.3 %); format: functional
PC-9 [18] = test: Induction of apoptosis in human PC-9 cells expressing EGFR L858R/T790M/C797S mutant assessed as late apoptotic cells at 0.25 uM incubated for 24 hrs by annexin-V/propidium iodide staining-based flow cytometry analysis (reference value: 0.14 %); format: functional
PC-9 [19] = test: Induction of apoptosis in human PC-9 cells expressing EGFR L858R/T790M/C797S mutant assessed as dead cells at 0.25 uM incubated for 24 hrs by annexin-V/propidium iodide staining-based flow cytometry analysis (reference value: 0.43 %); format: functional
[20] = target: Serine/threonine-protein kinase AKT (Homo sapiens) (UniProt P31751+Q9Y243+P31749); test: Inhibition of AKT phosphorylation in human PC-9 cells expressing EGFR L858R/T790M/C797S mutant at 0.01 to 1 uM by Western blot analysis; format: cell-based; conditions: dose 0.01-1 µM
PC-9 [21] = test: Antitumor activity against human PC-9 cells expressing EGFR L858R/T790M/C797S mutant xenografted in po dosed BALB/c nude mouse assessed as inhibition of tumor growth measured every other day for 18 days by digital vernier caliper analysis; format: functional, organism-based; conditions: dose 10-40 mg/kg, time 18.0 day, DDE = dose-dependent effect
PC-9 [22] = test: Antitumor activity against human PC-9 cells expressing EGFR L858R/T790M/C797S mutant xenografted in BALB/c nude mouse assessed as reduction in tumor weight at 10 to 40 mg/kg, po measured every day for 18 days by digital vernier caliper analysis; format: functional, organism-based; conditions: dose 10-40 mg/kg, time 18.0 day
[23] = Toxicity in BALB/c nude mouse xenografted with human PC-9 cells expressing EGFR L858R/T790M/C797S mutant assessed as body weight loss at 10 to 40 mg/kg, po measured every day for 18 days; format: organism-based; conditions: in vivo, 432 h, dose 10-40 mg/kg, time 18 day
[24] = AUC(0 to infinity) in overnight fasted Sprague-Dawley rat at 20 mg/kg, iv by HPLC analysis; format: ADME, organism-based; set-up: time infinity, dose 20 mg/kg, route iv; conditions: in vivo
[25] = AUC(0 to infinity) in overnight fasted Sprague-Dawley rat at 20 mg/kg, po by HPLC analysis; format: ADME, organism-based; set-up: time infinity, dose 20 mg/kg, route po; conditions: in vivo
[26] = Cmax in overnight fasted Sprague-Dawley rat at 20 mg/kg, iv by HPLC analysis; format: ADME, organism-based; set-up: dose 20 mg/kg, route iv; conditions: in vivo
[27] = Cmax in overnight fasted Sprague-Dawley rat at 20 mg/kg, po by HPLC analysis; format: ADME, organism-based; set-up: dose 20 mg/kg, route po; conditions: in vivo
[28] = Tmax in overnight fasted Sprague-Dawley rat at 20 mg/kg, iv by HPLC analysis; format: ADME, organism-based; conditions: in vivo
[29] = Tmax in overnight fasted Sprague-Dawley rat at 20 mg/kg, po by HPLC analysis; format: ADME, organism-based; conditions: in vivo
[30] = Oral bioavailability in overnight fasted Sprague-Dawley rat at 20 mg/kg by HPLC analysis; format: ADME, organism-based; conditions: in vivo
[31] = MRT (0 to infinity) in overnight fasted Sprague-Dawley rat at 20 mg/kg, iv by HPLC analysis; format: ADME, organism-based; conditions: in vivo
[32] = MRT (0 to infinity) in overnight fasted Sprague-Dawley rat at 20 mg/kg, po by HPLC analysis; format: ADME, organism-based; conditions: in vivo
[33] = Volume of distribution at steady state in overnight fasted Sprague-Dawley rat at 20 mg/kg, iv by HPLC analysis; format: ADME, organism-based; conditions: in vivo, read-out: Vdss
[34] = Volume of distribution at steady state in overnight fasted Sprague-Dawley rat at 20 mg/kg, po by HPLC analysis; format: ADME, organism-based; conditions: in vivo
[35] = Clearance in overnight fasted Sprague-Dawley rat at 20 mg/kg, iv by HPLC analysis; format: ADME, organism-based; conditions: in vivo
[36] = Clearance in overnight fasted Sprague-Dawley rat at 20 mg/kg, po by HPLC analysis; format: ADME, organism-based; conditions: in vivo
[37] = Half life in overnight fasted Sprague-Dawley rat at 20 mg/kg, iv by HPLC analysis; format: ADME, organism-based; conditions: in vivo
[38] = Half life in overnight fasted Sprague-Dawley rat at 20 mg/kg, po by HPLC analysis; format: ADME, organism-based; conditions: in vivo

Chain of Epidermal growth factor receptor (Homo sapiens), P00533 [L858R,T790M,C797S] (P00533 whole entry T790M/C797S/L858R): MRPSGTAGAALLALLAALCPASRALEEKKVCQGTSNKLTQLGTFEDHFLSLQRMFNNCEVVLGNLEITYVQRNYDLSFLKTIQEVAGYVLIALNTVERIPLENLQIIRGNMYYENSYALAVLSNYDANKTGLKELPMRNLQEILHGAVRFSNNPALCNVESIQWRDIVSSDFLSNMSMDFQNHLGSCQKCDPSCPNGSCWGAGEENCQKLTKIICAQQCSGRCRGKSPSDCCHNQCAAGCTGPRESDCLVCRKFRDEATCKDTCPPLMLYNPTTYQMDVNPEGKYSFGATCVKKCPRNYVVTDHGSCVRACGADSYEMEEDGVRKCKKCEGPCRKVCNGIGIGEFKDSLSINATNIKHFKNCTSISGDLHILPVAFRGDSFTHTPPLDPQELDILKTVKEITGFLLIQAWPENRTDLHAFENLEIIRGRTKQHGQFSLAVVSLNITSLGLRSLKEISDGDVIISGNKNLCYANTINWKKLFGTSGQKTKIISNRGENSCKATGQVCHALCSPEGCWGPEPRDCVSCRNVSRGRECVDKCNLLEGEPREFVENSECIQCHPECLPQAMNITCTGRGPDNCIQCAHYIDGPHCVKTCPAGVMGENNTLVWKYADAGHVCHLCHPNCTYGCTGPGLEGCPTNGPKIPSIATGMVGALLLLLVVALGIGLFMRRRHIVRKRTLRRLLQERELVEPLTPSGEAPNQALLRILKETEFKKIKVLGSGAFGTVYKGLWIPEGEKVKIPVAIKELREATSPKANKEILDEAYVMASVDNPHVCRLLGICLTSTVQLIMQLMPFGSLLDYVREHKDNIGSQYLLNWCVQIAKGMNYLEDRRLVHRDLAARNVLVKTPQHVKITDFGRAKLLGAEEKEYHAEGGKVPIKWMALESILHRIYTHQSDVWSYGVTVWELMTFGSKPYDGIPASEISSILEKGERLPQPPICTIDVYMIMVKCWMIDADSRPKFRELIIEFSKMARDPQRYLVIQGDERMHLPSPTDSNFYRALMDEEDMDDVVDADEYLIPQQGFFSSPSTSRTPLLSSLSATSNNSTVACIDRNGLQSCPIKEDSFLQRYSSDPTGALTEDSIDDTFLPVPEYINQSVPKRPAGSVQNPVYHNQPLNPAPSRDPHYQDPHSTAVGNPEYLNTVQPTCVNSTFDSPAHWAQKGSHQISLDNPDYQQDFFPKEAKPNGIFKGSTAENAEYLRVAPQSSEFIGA
Chain of Epidermal growth factor receptor (P00533 25-1210 T790M/C797S/L858R limits assumed): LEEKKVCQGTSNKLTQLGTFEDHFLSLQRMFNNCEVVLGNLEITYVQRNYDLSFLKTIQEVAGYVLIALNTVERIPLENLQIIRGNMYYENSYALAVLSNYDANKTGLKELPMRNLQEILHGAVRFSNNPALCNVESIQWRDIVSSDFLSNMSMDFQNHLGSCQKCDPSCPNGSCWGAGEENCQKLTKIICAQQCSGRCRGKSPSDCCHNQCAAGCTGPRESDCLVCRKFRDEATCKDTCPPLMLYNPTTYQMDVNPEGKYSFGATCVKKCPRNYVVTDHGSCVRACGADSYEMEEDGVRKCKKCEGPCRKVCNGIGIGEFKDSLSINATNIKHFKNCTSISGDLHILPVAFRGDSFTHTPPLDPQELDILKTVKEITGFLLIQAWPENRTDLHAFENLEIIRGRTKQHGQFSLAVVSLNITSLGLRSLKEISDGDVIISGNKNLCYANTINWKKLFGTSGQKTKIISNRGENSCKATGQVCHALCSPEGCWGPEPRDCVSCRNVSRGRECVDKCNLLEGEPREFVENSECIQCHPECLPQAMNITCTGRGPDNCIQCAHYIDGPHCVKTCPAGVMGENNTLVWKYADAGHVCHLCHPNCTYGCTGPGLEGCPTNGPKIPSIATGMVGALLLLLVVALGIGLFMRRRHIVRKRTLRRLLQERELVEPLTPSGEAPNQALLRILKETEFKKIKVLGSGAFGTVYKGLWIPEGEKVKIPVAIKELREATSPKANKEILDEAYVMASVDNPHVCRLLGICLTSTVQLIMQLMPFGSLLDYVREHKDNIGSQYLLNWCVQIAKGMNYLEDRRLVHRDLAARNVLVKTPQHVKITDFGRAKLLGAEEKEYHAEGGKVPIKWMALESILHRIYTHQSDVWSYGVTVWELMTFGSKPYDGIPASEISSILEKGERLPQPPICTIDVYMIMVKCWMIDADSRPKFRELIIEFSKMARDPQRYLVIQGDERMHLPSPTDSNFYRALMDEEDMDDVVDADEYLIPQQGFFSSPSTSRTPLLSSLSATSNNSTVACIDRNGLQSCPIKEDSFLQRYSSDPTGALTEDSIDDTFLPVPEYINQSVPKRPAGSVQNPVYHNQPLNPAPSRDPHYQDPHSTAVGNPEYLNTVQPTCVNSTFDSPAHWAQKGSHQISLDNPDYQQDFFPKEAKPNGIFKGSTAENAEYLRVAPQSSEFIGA
Chain of Signal transducer and activator of transcription 3 (Homo sapiens) (P40763 whole entry): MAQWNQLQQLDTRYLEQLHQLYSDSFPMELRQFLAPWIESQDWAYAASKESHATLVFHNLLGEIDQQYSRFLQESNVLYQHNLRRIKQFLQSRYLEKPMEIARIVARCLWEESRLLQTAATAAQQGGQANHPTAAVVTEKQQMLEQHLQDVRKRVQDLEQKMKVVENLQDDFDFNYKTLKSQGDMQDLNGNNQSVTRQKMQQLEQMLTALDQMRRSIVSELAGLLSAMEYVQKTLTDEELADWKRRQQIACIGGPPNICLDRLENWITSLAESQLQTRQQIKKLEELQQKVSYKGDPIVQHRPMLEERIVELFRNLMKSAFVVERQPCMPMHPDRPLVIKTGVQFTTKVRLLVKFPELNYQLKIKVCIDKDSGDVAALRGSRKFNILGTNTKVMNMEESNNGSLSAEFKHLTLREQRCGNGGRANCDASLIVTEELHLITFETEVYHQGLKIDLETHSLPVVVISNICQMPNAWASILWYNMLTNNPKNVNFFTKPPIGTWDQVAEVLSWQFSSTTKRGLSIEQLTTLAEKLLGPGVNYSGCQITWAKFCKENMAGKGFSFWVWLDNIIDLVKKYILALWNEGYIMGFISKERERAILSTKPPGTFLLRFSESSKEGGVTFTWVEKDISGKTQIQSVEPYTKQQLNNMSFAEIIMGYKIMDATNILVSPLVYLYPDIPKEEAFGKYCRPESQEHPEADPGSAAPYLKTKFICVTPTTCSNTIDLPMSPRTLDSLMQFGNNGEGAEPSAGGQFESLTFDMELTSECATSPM
Chain of Serine/threonine-protein kinase AKT (Homo sapiens) (P31749 whole entry, looked up): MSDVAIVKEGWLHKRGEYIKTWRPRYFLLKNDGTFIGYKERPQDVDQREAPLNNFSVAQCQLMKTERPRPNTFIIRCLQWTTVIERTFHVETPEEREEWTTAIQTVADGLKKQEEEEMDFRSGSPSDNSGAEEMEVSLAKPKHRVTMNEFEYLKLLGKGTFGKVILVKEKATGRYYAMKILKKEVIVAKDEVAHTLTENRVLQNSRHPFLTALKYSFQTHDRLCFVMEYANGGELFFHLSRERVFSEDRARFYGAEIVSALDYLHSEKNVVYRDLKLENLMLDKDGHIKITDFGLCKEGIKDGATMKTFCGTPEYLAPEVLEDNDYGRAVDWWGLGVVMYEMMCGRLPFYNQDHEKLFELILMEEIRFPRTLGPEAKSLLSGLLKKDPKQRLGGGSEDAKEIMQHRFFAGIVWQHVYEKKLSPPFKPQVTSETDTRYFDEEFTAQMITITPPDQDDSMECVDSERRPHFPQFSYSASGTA
Chain of Serine/threonine-protein kinase AKT (Homo sapiens) (P31751 whole entry, looked up): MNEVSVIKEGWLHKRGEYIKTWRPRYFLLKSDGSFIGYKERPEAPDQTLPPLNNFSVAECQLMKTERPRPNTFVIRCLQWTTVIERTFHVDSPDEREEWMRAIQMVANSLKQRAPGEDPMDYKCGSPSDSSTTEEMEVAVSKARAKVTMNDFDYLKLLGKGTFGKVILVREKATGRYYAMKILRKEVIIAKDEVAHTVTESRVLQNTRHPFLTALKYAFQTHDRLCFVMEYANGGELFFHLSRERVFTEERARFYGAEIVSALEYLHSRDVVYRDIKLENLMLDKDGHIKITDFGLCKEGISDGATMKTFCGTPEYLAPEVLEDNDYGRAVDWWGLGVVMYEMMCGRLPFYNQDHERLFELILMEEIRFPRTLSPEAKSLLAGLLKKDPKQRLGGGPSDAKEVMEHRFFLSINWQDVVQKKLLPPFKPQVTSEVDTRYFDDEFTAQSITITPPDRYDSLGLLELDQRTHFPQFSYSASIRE
Chain of Serine/threonine-protein kinase AKT (Homo sapiens) (Q9Y243 whole entry, looked up): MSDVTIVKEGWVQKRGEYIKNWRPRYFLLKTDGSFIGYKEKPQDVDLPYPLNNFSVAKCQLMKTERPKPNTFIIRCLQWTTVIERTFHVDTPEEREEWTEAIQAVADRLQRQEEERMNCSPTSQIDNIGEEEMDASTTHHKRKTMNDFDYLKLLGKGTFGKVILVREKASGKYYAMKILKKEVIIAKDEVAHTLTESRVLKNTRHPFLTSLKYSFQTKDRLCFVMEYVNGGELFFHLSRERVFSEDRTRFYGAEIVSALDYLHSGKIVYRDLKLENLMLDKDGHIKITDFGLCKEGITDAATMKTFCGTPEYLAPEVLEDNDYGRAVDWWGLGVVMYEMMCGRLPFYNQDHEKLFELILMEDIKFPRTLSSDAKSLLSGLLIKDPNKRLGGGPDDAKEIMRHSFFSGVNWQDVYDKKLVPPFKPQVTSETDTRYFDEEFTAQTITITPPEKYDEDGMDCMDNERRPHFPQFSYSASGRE

Structure (SMILES): CN1CCN(c2ccc(Nc3ncc4cc(CNc5ccccc5)n(C5CCCC5)c4n3)cc2)CC1
- inhibition [1]: Active
- inhibition [2]: Active
- inhibition [3]: 83%
- inhibition [4]: 90%
- IC50 [5]: 17 nM
- IC50 (PC-9 [6]): 13 nM
- IC50 (A-431): 2970 nM
- IC50 (A549): 1030 nM
- Activity (PC-9 [7]): Active
- viability at 0.01 µM (PC-9 [8]): 93.1%
- Activity (PC-9 [9]): 1.21%
- Activity (PC-9 [10]): 4.53%
- Activity (PC-9 [11]): 1.14%
- viability at 0.05 µM (PC-9 [12]): 88.2%
- Activity (PC-9 [13]): 5.43%
- Activity (PC-9 [14]): 5.21%
- Activity (PC-9 [15]): 1.11%
- viability at 0.25 µM (PC-9 [16]): 75.4%
- Activity (PC-9 [17]): 6.8%
- Activity (PC-9 [18]): 10.7%
- Activity (PC-9 [19]): 7.03%
- inhibition [20]: Active
- Activity (PC-9 [21]): Dde
- Activity (PC-9 [22]): Active
- Activity [23]: Non-Toxic
- AUC(0-inf) [24]: 15900 ng·h/mL
- AUC(0-inf) [25]: 10500 ng·h/mL
- Cmax [26]: 6840 ng/mL
- Cmax [27]: 770 ng/mL
- Tmax [28]: 4.98 min
- Tmax [29]: 6 h
- bioavailability [30]: 66%
- MRT inf [31]: 16.4 h
- MRT inf [32]: 16.8 h
- Vd [33]: 16 L/kg
- Vdss [34]: 28.101 L/kg
- clearance [35]: 21.2 mL/min/kg
- CL/F [36]: 35.9 mL/min/kg
- half-life [37]: 8.92 h
- half-life [38]: 11.2 h
